{"source": "the NIST ThermoML archive (doi:10.1021/acs.jced.8b00110)", "assay": "xn = mol fraction of the nth substance listed", "conditions": "Liquid, phase equilibration, x1 = 0.05"}
{"smiles": "FC(F)(F)/C=C/Cl", "note": "[(E)-1-chloro-3,3,3-trifluoroprop-1-ene] + CCCCCC[n+]1ccn(C)c1.O=S(=O)([N-]S(=O)(=O)C(F)(F)F)C(F)(F)F", "values": [{"measurement": "binary diffusion coefficient", "setting": "303.2 K", "value": "2.9e-10", "unit": "m2/s"}, {"measurement": "binary diffusion coefficient", "setting": "313.1 K", "value": "3.8e-10", "unit": "m2/s"}, {"measurement": "binary diffusion coefficient", "setting": "323.2 K", "value": "4.1e-10", "unit": "m2/s"}, {"measurement": "binary diffusion coefficient", "setting": "333.2 K", "value": "5.7e-10", "unit": "m2/s"}, {"measurement": "binary diffusion coefficient", "setting": "343.2 K", "value": "8.3e-10", "unit": "m2/s"}]}
{"smiles": "FC(F)(F)/C=C/Cl", "note": "[(E)-1-chloro-3,3,3-trifluoroprop-1-ene] + CCCCCCn1cc[n+](C)c1.F[B-](F)(F)F", "values": [{"measurement": "binary diffusion coefficient", "setting": "303.2 K", "value": "3.3e-10", "unit": "m2/s"}, {"measurement": "binary diffusion coefficient", "setting": "313.1 K", "value": "4.6e-10", "unit": "m2/s"}, {"measurement": "binary diffusion coefficient", "setting": "323.2 K", "value": "6.1e-10", "unit": "m2/s"}, {"measurement": "binary diffusion coefficient", "setting": "333.2 K", "value": "9.6e-10", "unit": "m2/s"}, {"measurement": "binary diffusion coefficient", "setting": "343.2 K", "value": "1.68e-09", "unit": "m2/s"}]}
{"smiles": "FC(F)(F)/C=C/Cl", "note": "[(E)-1-chloro-3,3,3-trifluoroprop-1-ene] + CCCCCCn1cc[n+](C)c1.O=S(=O)([O-])C(F)(F)F", "values": [{"measurement": "binary diffusion coefficient", "setting": "303.2 K", "value": "5.2e-10", "unit": "m2/s"}, {"measurement": "binary diffusion coefficient", "setting": "313.1 K", "value": "7.8e-10", "unit": "m2/s"}, {"measurement": "binary diffusion coefficient", "setting": "323.2 K", "value": "1.04e-09", "unit": "m2/s"}, {"measurement": "binary diffusion coefficient", "setting": "333.2 K", "value": "1.69e-09", "unit": "m2/s"}, {"measurement": "binary diffusion coefficient", "setting": "343.2 K", "value": "2.62e-09", "unit": "m2/s"}]}
